From PubChem BioAssay (NCI)
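A five-concentration, 48-hour dose response in 96-well plates underlies each endpoint, interpolated linearly between surrounding concentrations. TGI: concentration producing complete growth inhibition.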

Experiments:
Assay in all cases: NCI anticancer screen, dose series, 48 h
[1] = tested on: COLO 205 colon
[2] = tested on: DU-145 prostate
[3] = tested on: HCT-116 colon
[4] = tested on: HOP-62 NSCLC
[5] = tested on: HS 578T breast
[6] = tested on: HT29 colon
[7] = tested on: MDA-N
[8] = tested on: NCI-H226 lung
[9] = tested on: OVCAR-3 ovarian
[10] = tested on: OVCAR-5 ovarian
[11] = tested on: RXF 393 renal
[12] = tested on: SF-268 CNS
[13] = tested on: SF-295 CNS
[14] = tested on: SN12C renal
[15] = tested on: SW-620 colon
[16] = tested on: T-47D breast
[17] = tested on: UACC-257 melanoma
[18] = tested on: BT-549 breast
[19] = tested on: U251 CNS

[N-]=[N+]=Nc1c(Cl)c(Cl)nc2ccccc12
TGI [1]: > 100 µM
TGI [2]: > 100 µM
TGI [3]: > 100 µM
TGI [4]: > 100 µM
TGI [5]: > 100 µM
TGI [6]: > 100 µM
TGI [7]: > 100 µM
TGI [8]: > 100 µM
TGI [9]: > 100 µM
TGI [10]: > 100 µM
TGI [11]: > 100 µM
TGI [12]: > 100 µM
TGI [13]: > 100 µM
TGI [14]: > 100 µM
TGI [15]: > 100 µM
TGI [16]: > 100 µM
TGI [17]: > 100 µM

COc1ccc(-c2c3c(n(C4OC(COC(C)=O)C(OC(C)=O)C(OC(C)=O)C4OC(C)=O)c(=S)c2C#N)CCC3)cc1 (stereo not drawn)
TGI [18]: > 100 µM
TGI [1]: > 100 µM
TGI [2]: > 100 µM
TGI [3]: > 100 µM
TGI [4]: > 100 µM
TGI [5]: > 100 µM
TGI [6]: > 100 µM
TGI [7]: > 100 µM
TGI [9]: > 100 µM
TGI [10]: > 100 µM
TGI [11]: > 100 µM
TGI [12]: > 100 µM
TGI [13]: > 100 µM
TGI [14]: > 100 µM
TGI [15]: > 100 µM
TGI [19]: > 100 µM
TGI [17]: > 100 µM

COc1ccc(C2=C(N)c3c(Cl)cccc3C2=O)cc1
TGI [18]: > 100 µM
TGI [1]: > 100 µM
TGI [2]: > 100 µM
TGI [3]: > 100 µM
TGI [4]: > 100 µM
TGI [5]: > 100 µM
TGI [6]: > 100 µM
TGI [7]: > 100 µM
TGI [8]: > 100 µM
TGI [9]: > 100 µM
TGI [10]: > 100 µM
TGI [12]: > 100 µM
TGI [13]: > 100 µM
TGI [14]: > 100 µM
TGI [15]: > 100 µM
TGI [16]: > 100 µM
TGI [19]: > 100 µM
TGI [17]: > 100 µM

O=C1NC(=O)C(C(=O)C(=O)Nc2ccc(Cl)cc2Cl)C(=O)N1
TGI [1]: > 100 µM
TGI [3]: > 100 µM
TGI [4]: > 100 µM
TGI [9]: > 100 µM
TGI [10]: > 100 µM
TGI [13]: > 100 µM
TGI [15]: > 100 µM
TGI [19]: > 100 µM
TGI [17]: > 100 µM

COc1ccc2nc3c([N+](=O)[O-])ccc(NCCCN(C)C)c3c(NCCCN(C)C)c2c1
TGI [2]: > 10 µM
TGI [4]: 3.07 µM
TGI [6]: 2.56 µM
TGI [11]: 2.02 µM
TGI [12]: > 10 µM
TGI [13]: 3.01 µM
TGI [14]: 2.63 µM
TGI [15]: 6.22 µM
TGI [16]: > 10 µM
TGI [17]: > 10 µM

CN(C)CCNC(=O)c1cccc2c(NC(CS)C(=O)O)c3ccccc3[n+](C)c12 (stereo not drawn)
TGI [18]: 98.2 µM
TGI [1]: > 100 µM
TGI [2]: > 100 µM
TGI [3]: > 100 µM
TGI [4]: > 100 µM
TGI [5]: > 100 µM
TGI [6]: > 100 µM
TGI [9]: > 100 µM
TGI [10]: > 100 µM
TGI [12]: 80.8 µM
TGI [13]: > 100 µM
TGI [14]: > 100 µM
TGI [15]: > 100 µM
TGI [16]: > 100 µM
TGI [19]: > 100 µM
TGI [17]: > 100 µM

O=C1/C(=C/c2ccco2)N=C2Sc3c(nc[nH]c3=O)N12
TGI [1]: > 100 µM
TGI [2]: > 100 µM
TGI [3]: > 100 µM
TGI [4]: > 100 µM
TGI [5]: > 100 µM
TGI [6]: > 100 µM
TGI [7]: > 100 µM
TGI [8]: > 100 µM
TGI [9]: > 100 µM
TGI [10]: > 100 µM
TGI [11]: > 100 µM
TGI [12]: > 100 µM
TGI [13]: > 100 µM
TGI [14]: > 100 µM
TGI [15]: > 100 µM
TGI [16]: > 100 µM
TGI [19]: > 100 µM
TGI [17]: > 100 µM

CNC(=O)NCCN1CC2CCC(CC2)C1
TGI [1]: > 10 µM
TGI [2]: > 10 µM
TGI [3]: > 10 µM
TGI [4]: > 10 µM
TGI [5]: > 10 µM
TGI [6]: > 10 µM
TGI [7]: > 10 µM
TGI [8]: > 10 µM
TGI [9]: > 10 µM
TGI [11]: > 10 µM
TGI [12]: > 10 µM
TGI [13]: > 10 µM
TGI [14]: > 10 µM
TGI [15]: > 10 µM
TGI [16]: > 10 µM
TGI [19]: > 10 µM
TGI [17]: > 10 µM

COC(=O)c1ccccc1CC(Cc1ccc2c(c1)CCC2)C(=O)OC (stereo not drawn)
TGI [1]: > 100 µM
TGI [2]: > 100 µM
TGI [3]: > 100 µM
TGI [4]: > 100 µM
TGI [5]: > 100 µM
TGI [6]: > 100 µM
TGI [7]: > 100 µM
TGI [8]: > 100 µM
TGI [9]: > 100 µM
TGI [10]: > 100 µM
TGI [11]: > 100 µM
TGI [12]: > 100 µM
TGI [13]: > 100 µM
TGI [14]: > 100 µM
TGI [15]: > 100 µM
TGI [16]: > 100 µM
TGI [19]: > 100 µM
TGI [17]: > 100 µM

CC1=NC2c3c(-c4ccc(Cl)cc4)cn(-c4ccc(C)cc4)c3N=CN2N1 (stereo not drawn)
TGI [18]: > 100 µM
TGI [1]: > 100 µM
TGI [2]: > 100 µM
TGI [3]: > 100 µM
TGI [4]: > 100 µM
TGI [5]: 38.4 µM
TGI [6]: > 100 µM
TGI [7]: > 100 µM
TGI [8]: > 100 µM
TGI [9]: > 100 µM
TGI [10]: > 100 µM
TGI [11]: > 100 µM
TGI [12]: > 100 µM
TGI [13]: > 100 µM
TGI [14]: > 100 µM
TGI [15]: > 100 µM
TGI [19]: > 100 µM
TGI [17]: > 100 µM

CC(C)(C)OC(=O)NC(Cc1ccc(O)cn1)C(=O)O (stereo not drawn)
TGI [18]: > 100 µM
TGI [1]: > 100 µM
TGI [2]: > 100 µM
TGI [3]: > 100 µM
TGI [4]: > 100 µM
TGI [5]: > 100 µM
TGI [6]: > 100 µM
TGI [7]: > 100 µM
TGI [8]: > 100 µM
TGI [9]: > 100 µM
TGI [10]: > 100 µM
TGI [11]: > 100 µM
TGI [12]: > 100 µM
TGI [13]: > 100 µM
TGI [14]: > 100 µM
TGI [15]: > 100 µM
TGI [19]: > 100 µM
TGI [17]: > 100 µM

Nc1ccc(Oc2ccc(C3(c4ccc(Oc5ccc(N)cc5)cc4)C4CC5CC(C4)CC3C5)cc2)cc1
TGI [18]: > 49.2 µM
TGI [1]: > 100 µM
TGI [2]: > 53.5 µM
TGI [3]: 13.7 µM
TGI [4]: 32.3 µM
TGI [5]: > 100 µM
TGI [6]: 24.7 µM
TGI [7]: 40.4 µM
TGI [8]: > 78.4 µM
TGI [9]: 9.78 µM
TGI [10]: > 100 µM
TGI [11]: 20.9 µM
TGI [12]: > 95.3 µM
TGI [13]: 73.8 µM
TGI [14]: 21.9 µM
TGI [15]: > 66.5 µM
TGI [19]: 21.5 µM
TGI [17]: > 100 µM

CN(C)CCCNc1ncnc2c1ncn2C1OC(CO)C(O)C1O (stereo not drawn)
TGI [18]: > 100 µM
TGI [1]: > 100 µM
TGI [2]: > 100 µM
TGI [3]: > 100 µM
TGI [4]: > 100 µM
TGI [6]: > 100 µM
TGI [7]: > 100 µM
TGI [8]: > 100 µM
TGI [9]: > 100 µM
TGI [10]: > 100 µM
TGI [11]: > 100 µM
TGI [12]: > 100 µM
TGI [13]: > 100 µM
TGI [14]: > 100 µM
TGI [15]: > 100 µM
TGI [16]: > 100 µM
TGI [19]: > 100 µM
TGI [17]: > 100 µM

Clc1ccc(C(Cc2cccc(Cl)c2)c2c(Cl)nc(N3CCNCC3)nc2Cl)cc1 (stereo not drawn)
TGI [18]: 39.1 µM
TGI [1]: 11.9 µM
TGI [2]: 33.9 µM
TGI [3]: 25.9 µM
TGI [4]: 28.9 µM
TGI [5]: 38.8 µM
TGI [6]: > 100 µM
TGI [7]: 29.6 µM
TGI [8]: > 100 µM
TGI [9]: 29.2 µM
TGI [10]: 25 µM
TGI [13]: 31 µM
TGI [15]: 30.1 µM
TGI [16]: 31 µM
TGI [19]: 30 µM
TGI [17]: 37.6 µM
